Source: PMC8724251, “A Supramolecular Nanoparticle of Pemetrexed Improves the Anti-Tumor Effect by Inhibiting Mitochondrial Energy Metabolism” (Frontiers in Bioengineering and Biotechnology, 2021)
Read-outs that look alike come from different tables or passages of the source. Square brackets hold non-standard residues; d marks the D form. Ends that are not written are not given here. Peptide text beside a SMILES is read from it. * marks the point of attachment. ξ: configuration not given here. X1 = Nc1nc2[nH]cc(CCc3ccc(C(=O)*)cc3)c2c(=O)[nH]1; ξE = NC(CCC(=O)O)C(=O)O

What was measured:
LLC cells [1] = test: MTT viability assay, LLC cells
Procedure: (§1) Lewis lung cancer (LLC) and A549 cells (100 µl) were plated at a concentration of 5 × 10^3 cells/well in a flat-bottomed 96-well plate on Day 0. […] Then, the culture medium was removed, and MTT (0.5 mg/ml) was added to each well and incubated for 4 h. The supernatant was discarded, and dimethyl sulfoxide (100 µl) was used to completely dissolve the crystals.

A549 cells [2] = test: MTT viability assay, A549 cells
Procedure: as §1

LLC cells [3] = test: Live/dead assay (calcein-AM / EthD-1), LLC cells; format: cell-based; conditions: 6 μM, 72 h, calcein-AM/EthD-1, microscopy
Procedure: (§2) LLC cells and A549 cells (5,000 cells/well) were plated in 96-well plates and cultured for 24 h. Then, the cells were cocultured with 6 and 12 µM PEM and PEM-FFRGD for 72 h, respectively. The cells were washed with PBS and stained with calcein-AM and ethidium homodimer-1 (EthD-1) for 15 min. Then, the cells were viewed under microscopy (TI-S, Nikon, United States).

A549 cells [4] = test: Live/dead assay (calcein-AM / EthD-1), A549 cells; format: cell-based; conditions: 12 μM, 72 h, calcein-AM/EthD-1, microscopy
Procedure: as §2

Lewis lung tumors = test: In vivo antitumor efficacy in LLC tumor-bearing mice; parameters: species or system C57BL/6J mice; conditions: LLC subcutaneous tumors, i.v., 20 mg/kg, two injections, tumor volumes within 2 weeks, n = 5
Procedure: (§3) C57BL/6J mice were subcutaneously inoculated with Lewis lung tumors and then randomly divided into four groups (5 mice per group) when the tumor sizes were approximately 100 mm^3. Mice in Groups 1 and 2 received PBS and FFRGD gels through i.v. injections, while mice in Groups 3 and 4 were administered 20 mg/kg PEM and PEM-FFRGD nanoparticles by i.v. injection. Repeated injections were administered on Days 1 and 5. Tumor size and body weight were monitored every 2 days, and the tumor volume was calculated according to the following formula: tumor volume (V, mm^3) = (tumor width)^2 × (tumor length)/2.

[5] = Body weight and serum TNFα, IL-6, ALT, AST in LLC tumor-bearing mice; format: in vivo, C57BL/6J mice; conditions: for mouse weight: i.v., monitored every 2 days
Procedure: as §3

[6] = LLC tumor-bearing mice, i.v. 20 mg/kg, n = 5

Row | Compound | cytotoxicity toward LLC cells, 24 h (LLC cells [1]) | cytotoxicity toward A549 cells, 24 h (A549 cells [2]) | cell killing in live/dead staining, LLC cells (LLC cells [3]) | cell killing in live/dead staining, A549 cells (A549 cells [4]) | tumor growth (Lewis lung tumors) | mouse weight ([5]; LLC tumor-bearing mice, n = 5) | cytotoxic activity toward LLC cells compared with PEM alone (LLC cells [1]) | cytotoxicity toward LLC cells, 48 h (LLC cells [1]) | cytotoxicity toward A549 cells, 24 h (A549 cells [2]; MTT, different concentrations, 24 h incubation) | cytotoxicity toward A549 cells, 48 h (A549 cells [2]; MTT, different concentrations, 48 h incubation, viability lower than with PEM) | cytotoxic activity toward A549 cells compared with PEM alone (A549 cells [2]; MTT, series of concentrations, 72 h) | serum level of ALT versus PBS and PEM alone [5, 6] | serum level of AST versus PBS and PEM alone [5, 6] | serum level of IL-6 versus PBS and PEM alone [5, 6] | serum level of TNFα versus PBS and PEM alone [5, 6] | systemic toxicity in mice ([5]; from body weight and serum TNFα, IL-6, ALT, AST) | cell toxicity at 100 μM (LLC cells) (LLC cells [1]; MTT, 100 μM, 72 h) | cell toxicity at 100 μM (A549 cells) (A549 cells [2]; MTT, 100 μM, 72 h)
1 | Nc1nc2[nH]cc(CCc3ccc(C(=O)N[C@@H](CCC(=O)O)C(=O)O)cc3)c2c(=O)[nH]1 [PEM, Pemetrexed] | no cytotoxicity | no cytotoxicity | could kill most cells | could kill most cells | significantly inhibited | no influence on mouse weight | – | – | – | – | – | – | – | – | – | – | – | –
2 | N=C(N)NCCC[C@H](NC(=O)[C@H](Cc1ccccc1)NC(=O)[C@H](Cc1ccccc1)NC(=O)C(CCC(=O)O)NC(=O)c1ccc(CCc2c[nH]c3nc(N)[nH]c(=O)c23)cc1)C(=O)NCC(=O)N[C@@H](CC(=O)O)C(=O)O (some centres unmarked) [PEM-FFRGD] (X1-[ξE]FFRGD-OH) | no cytotoxicity | – | – | – | – | – | stronger cytotoxic activity | showed cytotoxic activity | no cytotoxicity | showed cytotoxic activity | stronger cytotoxic activity | not different | not different | not different | not different | no systemic toxicity | – | –
3 | FFRGD [FFRGD, reference compound] | – | – | – | – | – | no influence on mouse weight | – | – | – | – | – | – | – | – | – | – | did not display any distinct cell toxicity | did not display any distinct cell toxicity
